Results on nine molecules are retold here after article PMC8979054 (RSC Advances, 2022).

Like-named read-outs stand apart in the source and are kept apart here.

Test [1] has as its target T1, xanthine oxidase (Bos taurus, UniProt P80457). The experiment in a line: Fixed-ratio combination analysis on XO. As to conditions: for EC90: read-out: EC90 dose; for DRI: in techtochrysin + allopurinol combination.
Test [2] has as its system XO. The settings on record: cited from earlier work; for IC50: XO inhibition.
The target in test [3] is T1, xanthine oxidase. The experiment in a line: In vitro xanthine oxidase inhibitory assay. The class given is biochemical, bovine.
Where [4] appears, read: Dm (median-effect dose), antilog of x-intercept of median-effect plot, CompuSyn.
[5] abbreviates: EC50 dose, single agent, dose for 50% inhibition of XO activity.
[6] abbreviates: single agent, dose for 10% inhibition of XO activity.
[7] abbreviates: single agent, dose for 30% inhibition of XO activity.
Setting [8] is: single agent, dose for 70% inhibition of XO activity.

T1 sequence (P80457 whole entry): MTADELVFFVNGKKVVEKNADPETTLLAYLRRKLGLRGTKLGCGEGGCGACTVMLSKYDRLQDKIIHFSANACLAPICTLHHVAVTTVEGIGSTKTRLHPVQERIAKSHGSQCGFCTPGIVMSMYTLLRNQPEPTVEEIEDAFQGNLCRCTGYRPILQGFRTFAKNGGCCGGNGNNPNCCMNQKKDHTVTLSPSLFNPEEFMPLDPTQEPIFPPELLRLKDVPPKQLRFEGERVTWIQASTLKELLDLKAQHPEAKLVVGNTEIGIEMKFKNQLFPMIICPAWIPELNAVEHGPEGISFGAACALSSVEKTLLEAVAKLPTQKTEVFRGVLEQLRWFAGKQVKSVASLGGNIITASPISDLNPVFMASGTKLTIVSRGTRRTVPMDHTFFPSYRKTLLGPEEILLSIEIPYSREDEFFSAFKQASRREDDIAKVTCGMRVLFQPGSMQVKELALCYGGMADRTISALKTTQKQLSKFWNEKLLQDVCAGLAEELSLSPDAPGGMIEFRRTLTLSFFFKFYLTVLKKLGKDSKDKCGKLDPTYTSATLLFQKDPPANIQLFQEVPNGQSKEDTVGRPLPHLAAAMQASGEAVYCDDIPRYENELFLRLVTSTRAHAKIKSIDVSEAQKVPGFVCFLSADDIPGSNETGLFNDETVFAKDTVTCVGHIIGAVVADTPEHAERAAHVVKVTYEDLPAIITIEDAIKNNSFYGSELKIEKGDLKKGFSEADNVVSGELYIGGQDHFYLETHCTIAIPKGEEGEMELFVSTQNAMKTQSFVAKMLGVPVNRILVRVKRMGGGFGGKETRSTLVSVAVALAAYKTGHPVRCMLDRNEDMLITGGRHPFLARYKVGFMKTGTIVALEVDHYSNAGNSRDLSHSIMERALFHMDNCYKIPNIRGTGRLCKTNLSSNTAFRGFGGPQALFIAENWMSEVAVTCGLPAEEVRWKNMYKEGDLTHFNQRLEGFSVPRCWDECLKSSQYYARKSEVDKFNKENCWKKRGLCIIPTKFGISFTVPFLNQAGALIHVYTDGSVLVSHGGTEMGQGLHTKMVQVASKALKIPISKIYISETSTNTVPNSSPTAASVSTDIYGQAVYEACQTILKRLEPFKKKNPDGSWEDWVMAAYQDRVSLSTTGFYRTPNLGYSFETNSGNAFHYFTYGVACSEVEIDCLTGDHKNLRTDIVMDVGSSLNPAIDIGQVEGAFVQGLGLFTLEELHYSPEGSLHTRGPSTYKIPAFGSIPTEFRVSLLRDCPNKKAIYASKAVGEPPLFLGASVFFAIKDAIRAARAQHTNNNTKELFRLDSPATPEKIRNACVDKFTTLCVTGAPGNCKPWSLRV

For orientation: EC90 means the point of the concentration-response curve where the effect stands at 90%. The term IC50 denotes the concentration that gives 50% inhibition. With `Oc1ncnc2[nH]ncc12` [Allopurinol, allopurinol, reference compound], in test [1], the EC10 dose is 180 nM, the EC30 dose worked out at 420 nM, the EC70 dose was determined as 1840 nM and the “m (slope of the median-effect plot)” value is listed as 1.44. Besides, the EC90 in test [1] came to 4050 nM. The half-inhibitory concentration (IC50) in test [2] is 13200 nM.

In test [3], `O=c1cc(-c2ccc(O)c(O)c2)oc2cc(O)cc(O)c12` [Luteolin, luteolin] gave an IC50 of 1680 nM. Besides, in test [2], the IC50 is 8210 nM and the “type of XO inhibition” value was “competitive”.

The EC50 is the concentration that produces a half-maximal response. Molecule `O=C(/C=C/c1ccc(O)c(O)c1)O[C@H](Cc1ccc(O)c(O)c1)C(=O)O` [Rosmarinic acid, rosmarinic acid] returned an IC50 in test [3] of 970 nM. Besides, in test [1] (CompuSyn), the “m (slope of the median-effect plot)” value was found to be 1.78. Further, the EC50 was found to be 1040 nM in test [1] (setting [4]) and 970 nM in test [1] (setting [5]). Besides, the “Dose of each drug alone required for the same effect” value (from here on “Dose of each drug alone required”) in test [1] (Fa 16%, rosmarinic acid/allopurinol analysis) came out at 0.32 µM; in test [1] (Fa 34%, rosmarinic acid/allopurinol analysis) it was 0.72 µM; in test [1] (Fa 42%, rosmarinic acid/febuxostat analysis) it was 0.87 µM; in test [1] (Fa 66%, rosmarinic acid/febuxostat analysis), 1.78 µM; in test [1] (Fa 69%, rosmarinic acid/allopurinol analysis) it was 2.06 µM; in test [1] (Fa 74%, rosmarinic acid/febuxostat analysis) it was 2.35 µM. The “Dose of each drug alone required” value in test [1] (Fa 82%, rosmarinic acid/febuxostat analysis) was determined as 3.42 µM; in test [1] (Fa 92%, rosmarinic acid/febuxostat analysis), 6.21 µM; in test [1] (Fa 93%, rosmarinic acid/allopurinol analysis), 8.35 µM; in test [1] (Fa 98%, rosmarinic acid/allopurinol analysis) it was 21.32 µM. Moreover, the concentration for an effect of 90% (EC90) in test [1] came out at 5220 nM. For the same molecule, in test [1] (setting [6]), the EC10 dose was 260 nM. Moreover, the EC30 dose in test [1] (setting [7]) was 480 nM. Moreover, in test [1] (setting [8]), the EC70 dose came to 2440 nM.

Turning to `O=c1cc(-c2ccc(O)cc2)oc2cc(O)cc(O)c12` [Apigenin, apigenin], in test [2], the half-maximal inhibitory concentration (IC50) was 6330 nM and the “type of XO inhibition” value is “competitive”.

Consider `Cc1nc(-c2ccc(OCC(C)C)c(C#N)c2)sc1C(=O)O` [Febuxostat, febuxostat, reference compound], for which, in test [1], the EC10 dose was determined as 5 nM, the EC30 dose turned out to be 15 nM, the EC70 dose is 40 nM and the “m (slope of the median-effect plot)” value turned out to be 1.57. The EC90 in test [1] came to 120 nM.

Turning to `O=c1c(O)c(-c2ccc(O)c(O)c2)oc2cc(O)cc(O)c12` [Quercetin, quercetin], in test [2], the concentration for half-maximal inhibition (IC50) is 2920 nM and the “type of XO inhibition” value was “mixed-type”.

On to `O=C1c2c(O)cc(O)cc2O[C@H](c2ccccc2)[C@H]1O` [Pinobanksin, pinobanksin], for which, in test [2], the “type of XO inhibition” value is on record as “competitive”.

In the case of `COc1cc(O)c2c(=O)cc(-c3ccccc3)oc2c1` [Techtochrysin, techtochrysin], the IC50 in test [3] came to 84 nM. In addition, in test [3] (from IC50 values of Table 5), the “fold enhancement in XO inhibitory activity compared with allopurinol” value worked out at 10 folds. Moreover, in test [1] (CompuSyn), the “m (slope of the median-effect plot)” value came to 1.73. Moreover, the half-maximal effective concentration (EC50) was 81 nM in test [1] (setting [4]) and 84 nM in test [1] (setting [5]). Besides, the “Dose of each drug alone required” value in test [1] (Fa 19%, techtochrysin/allopurinol analysis) came out at 0.031 µM; in test [1] (Fa 35%, techtochrysin/allopurinol analysis) it was 0.064 µM; in test [1] (Fa 53%, techtochrysin/febuxostat analysis) it was 0.11 µM; in test [1] (Fa 57%, techtochrysin/allopurinol analysis), 0.15 µM; in test [1] (Fa 69%, techtochrysin/febuxostat analysis), 0.20 µM; in test [1] (Fa 75%, techtochrysin/febuxostat analysis), 0.25 µM. Further, the “Dose of each drug alone required” value in test [1] (Fa 84%, techtochrysin/febuxostat analysis) worked out at 0.39 µM; in test [1] (Fa 91%, techtochrysin/allopurinol analysis), 0.98 µM; in test [1] (Fa 94%, techtochrysin/febuxostat analysis), 0.96 µM; in test [1] (Fa 97%, techtochrysin/allopurinol analysis), 3.19 µM. Moreover, the figures for the DRI in test [1] (Fa […]% (70% effect level doses)) and in test [1] (Fa […]% (90% effect level doses)) were 3.51 fold and 3.63 fold, respectively. Further, in test [1], the 90% effect concentration (EC90) is 880 nM. The EC10 dose in test [1] (setting [6]) turned out to be 24 nM. Besides, in test [1] (setting [7]), the EC30 dose was found to be 46 nM. Besides, the EC70 dose in test [1] (setting [8]) came to 280 nM.

As for `O=c1c(O)c(-c2ccccc2)oc2cc(O)cc(O)c12` [Galangin, galangin], in test [2], the “type of XO inhibition” value was “competitive”.
